Data taken from US8288552B2, “Dihydropyridone amidesas P2X7 modulators” (Roche Palo Alto LLC, priority 2008, dated 2012).

Target: T1, P2X7 (UniProt Q99572)
T1 sequence (Q99572 1-595): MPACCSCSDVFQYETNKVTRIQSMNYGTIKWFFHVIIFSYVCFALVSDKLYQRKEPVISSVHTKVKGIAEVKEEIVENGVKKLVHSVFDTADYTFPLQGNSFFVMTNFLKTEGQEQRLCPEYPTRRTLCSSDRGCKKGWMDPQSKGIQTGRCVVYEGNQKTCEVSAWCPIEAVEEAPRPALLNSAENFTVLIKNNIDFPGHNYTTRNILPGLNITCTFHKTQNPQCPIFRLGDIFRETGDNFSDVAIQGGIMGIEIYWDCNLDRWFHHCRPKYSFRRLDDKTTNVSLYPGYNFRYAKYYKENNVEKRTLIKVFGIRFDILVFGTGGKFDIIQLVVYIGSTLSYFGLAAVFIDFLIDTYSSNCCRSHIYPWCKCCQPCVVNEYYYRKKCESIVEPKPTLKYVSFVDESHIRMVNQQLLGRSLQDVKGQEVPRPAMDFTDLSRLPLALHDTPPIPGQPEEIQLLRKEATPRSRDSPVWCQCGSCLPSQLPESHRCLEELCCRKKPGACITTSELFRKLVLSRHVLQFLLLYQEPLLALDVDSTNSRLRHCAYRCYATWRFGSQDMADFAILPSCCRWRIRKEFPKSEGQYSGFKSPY
Assay: P2X7 pKi of Table 1
Format: cell-based
Method in brief: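 Human P2X7 in 1321N1 cells and rat P2X7 in HEK293 cells, loaded with fluo-3 for 1 hr at 37° C, then exposed to antagonist for 20 min at room temperature. BzATP agonist was used at 100 μM final (human) or 5 μM final (rat), with fluorescence read for 5 min. The response was normalized to maximal fluorescence evoked by 5 μM ionomycin.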

Row | Compound | pKi
1 | Cc1ccccc1CNC(=O)C1=CNC(=O)C[C@H]1c1cccc(F)c1 [Compound 83, (S)-4-(3-Fluoro-phenyl)-6-oxo-1,4,5,6-tetrahydro-pyridine-3-carboxylic acid 2-methyl-benzylamide] | 6.17
2 | O=C1C[C@@H](c2cccc(F)c2)C(C(=O)NCc2ccccc2Cl)=CN1 [Compound 84, (S)-4-(3-Fluoro-phenyl)-6-oxo-1,4,5,6-tetrahydro-pyridine-3-carboxylic acid 2-chloro-benzylamide] | 6.365
3 | CC(=O)COc1cc(NC(=O)C2=CNC(=O)C[C@H]2c2cccc(F)c2)c(C)cc1F [Compound 85, (S)-4-(3-Fluoro-phenyl)-6-oxo-1,4,5,6-tetrahydro-pyridine-3-carboxylic acid[4-fluoro-2-methyl-5-(2-oxo-propoxy)-phenyl]-amide] | 6.705
4 | Cc1c(Cl)cccc1NC(=O)C1=CNC(=O)C[C@H]1c1cccc(F)c1 [Compound 88, (S)-4-(3-Fluoro-phenyl)-6-oxo-1,4,5,6-tetrahydro-pyridine-3-carboxylic acid(3-chloro-2-methyl-phenyl)-amide] | 7.915
5 | COc1cc(C)c(NC(=O)C2=CN(C)C(=O)C(C)C2c2ccc(F)cc2)cc1OC (stereo not shown) [Compound 91, 4-(4-Fluoro-phenyl)-1,5-dimethyl-6-oxo-1,4,5,6-tetrahydro-pyridine-3-carboxylic acid(4,5-dimethoxy-2-methyl-phenyl)-amide] | 5.65
6 | Cc1ccc(Cl)cc1NC(=O)C1=CNC(=O)C[C@H]1c1cccc(F)c1 [Compound 92, (S)-4-(3-Fluoro-phenyl)-6-oxo-1,4,5,6-tetrahydro-pyridine-3-carboxylic acid(5-chloro-2-methyl-phenyl)-amide] | 6.995
7 | O=C1C[C@@H](c2ccc(F)cc2)C(C(=O)NCc2ccccc2Cl)=CN1 [Compound 97, (S)-4-(4-Fluoro-phenyl)-6-oxo-1,4,5,6-tetrahydro-pyridine-3-carboxylic acid 2-chloro-benzylamide] | 6.16
8 | Cc1ccc(OC(F)(F)F)cc1NC(=O)C1=CNC(=O)C[C@H]1c1ccc(F)cc1 [Compound 99, (S)-4-(4-Fluoro-phenyl)-6-oxo-1,4,5,6-tetrahydro-pyridine-3-carboxylic acid(2-methyl-5-trifluoromethoxy-phenyl)-amide] | 6.755
9 | CCc1c(NC(=O)C2=CNC(=O)CC2c2ccc(F)cc2)cccc1OC (stereo not shown) [Compound 102, 4-(4-Fluoro-phenyl)-6-oxo-1,4,5,6-tetrahydro-pyridine-3-carboxylic acid(2-ethyl-3-methoxy-phenyl)-amide] | 7.316
10 | Cc1cc(Cl)c(CO)cc1NC(=O)C1=CNC(=O)C[C@H]1c1ccc(F)cc1 [Compound 104, (S)-4-(4-Fluoro-phenyl)-6-oxo-1,4,5,6-tetrahydro-pyridine-3-carboxylic acid(4-chloro-5-hydroxymethyl-2-methyl-phenyl)-amide] | 7.21
11 | COc1cc(NC(=O)C2=CNC(=O)C[C@H]2c2ccc(F)cc2)ccc1F [Compound 108, (S)-4-(4-Fluoro-phenyl)-6-oxo-1,4,5,6-tetrahydro-pyridine-3-carboxylic acid(4-fluoro-3-methoxy-phenyl)-amide] | 6.11
12 | COc1cc(NC(=O)C2=CNC(=O)C[C@H]2c2ccc(F)cc2)c(Br)cc1F [Compound 109, (S)-4-(4-Fluoro-phenyl)-6-oxo-1,4,5,6-tetrahydro-pyridine-3-carboxylic acid(2-bromo-4-fluoro-5-methoxy-phenyl)-amide] | 7.15
13 | Cc1c(NC(=O)C2=CNC(=O)C[C@H]2c2ccc(F)cc2)cccc1C(=O)N(C)C [Compound 110, (S)-4-(4-Fluoro-phenyl)-6-oxo-1,4,5,6-tetrahydro-pyridine-3-carboxylic acid(3-dimethylcarbamoyl-2-methyl-phenyl)-amide] | 5.43

Other lines, results leading:

Row | pKi | Compound
14 | 6.63 | Cc1c(F)cccc1NC(=O)C1=CNC(=O)C[C@H]1c1ccc(F)cc1 [Compound 87, (S)-4-(4-Fluoro-phenyl)-6-oxo-1,4,5,6-tetrahydro-pyridine-3-carboxylic acid(3-fluoro-2-methyl-phenyl)-amide]
15 | 7.443 | Cc1ccc([C@@H](C)O)cc1NC(=O)C1=CNC(=O)C[C@H]1c1ccc(F)cc1 [Compound 89, (S)-4-(4-Fluoro-phenyl)-6-oxo-1,4,5,6-tetrahydro-pyridine-3-carboxylic acid[5-((R)-1-hydroxy-ethyl)-2-methyl-phenyl]-amide]
16 | 7.19 | Cc1ccc([C@H](C)O)cc1NC(=O)C1=CNC(=O)C[C@H]1c1ccc(F)cc1 [Compound 90, (S)-4-(4-Fluoro-phenyl)-6-oxo-1,4,5,6-tetrahydro-pyridine-3-carboxylic acid[5-((S)-1-hydroxy-ethyl)-2-methyl-phenyl]-amide]
17 | 6.86 | CC(=O)c1ccc(C)c(NC(=O)C2=CNC(=O)C[C@H]2c2ccc(F)cc2)c1 [Compound 93, (S)-4-(4-Fluoro-phenyl)-6-oxo-1,4,5,6-tetrahydro-pyridine-3-carboxylic acid(5-acetyl-2-methyl-phenyl)-amide]
18 | 7.83 | Cc1c(Cl)cccc1NC(=O)C1=CNC(=O)C[C@H]1c1ccc(F)cc1 [Compound 94, (S)-4-(4-Fluoro-phenyl)-6-oxo-1,4,5,6-tetrahydro-pyridine-3-carboxylic acid(3-chloro-2-methyl-phenyl)-amide]
19 | 6.26 | O=C1C[C@@H](c2ccc(F)cc2)C(C(=O)Nc2ccccc2C(F)(F)F)=CN1 [Compound 95, (S)-4-(4-Fluoro-phenyl)-6-oxo-1,4,5,6-tetrahydro-pyridine-3-carboxylic acid(2-trifluoromethyl-phenyl)-amide]
20 | 6.803 | Cc1c(CCO)cccc1NC(=O)C1=CNC(=O)C[C@H]1c1ccc(F)cc1 [Compound 100, (S)-4-(4-Fluoro-phenyl)-6-oxo-1,4,5,6-tetrahydro-pyridine-3-carboxylic acid[3-(2-hydroxy-ethyl)-2-methyl-phenyl]-amide]
21 | 6.415 | Cc1ccccc1NC(=O)C1=CNC(=O)C[C@H]1c1ccc(F)cc1 [Compound 101, (S)-4-(4-Fluoro-phenyl)-6-oxo-1,4,5,6-tetrahydro-pyridine-3-carboxylic acid o-tolylamide]
22 | 7.44 | Cc1cccc(NC(=O)C2=CNC(=O)C[C@H]2c2ccc(F)cc2)c1Cl [Compound 103, (S)-4-(4-Fluoro-phenyl)-6-oxo-1,4,5,6-tetrahydro-pyridine-3-carboxylic acid(2-chloro-3-methyl-phenyl)-amide]
23 | 6.77 | Cc1cc(CCO)ccc1NC(=O)C1=CNC(=O)C[C@H]1c1ccc(F)cc1 [Compound 105, (S)-4-(4-Fluoro-phenyl)-6-oxo-1,4,5,6-tetrahydro-pyridine-3-carboxylic acid[4-(2-hydroxy-ethyl)-2-methyl-phenyl]-amide]
24 | 7.375 | COc1cccc(NC(=O)C2=CNC(=O)C[C@H]2c2ccc(F)cc2)c1C [Compound 106, (S)-4-(4-Fluoro-phenyl)-6-oxo-1,4,5,6-tetrahydro-pyridine-3-carboxylic acid(3-methoxy-2-methyl-phenyl)-amide]
25 | 5.36 | Cc1c(CO)cccc1NC(=O)C1=CNC(=O)C[C@@H]1c1ccc(F)cc1 [Compound 107, (R)-4-(4-Fluoro-phenyl)-6-oxo-1,4,5,6-tetrahydro-pyridine-3-carboxylic acid(3-hydroxymethyl-2-methyl-phenyl)-amide]
